Measurements: patent US11332470B2, “CXCR4 inhibitors and uses thereof” (X4 Pharmaceuticals, Inc., priority 2016, dated 2022)
pIC50: −log10 of the molar value. Where two headings read alike, the source gives them in different places.

How the values were obtained:
[1] = target: T1, CXCR4 (Jurkat cells expressing CXCR4) (Homo sapiens, UniProt P61073); assay: Chemokine (CXCL12-AF647) binding inhibition assay; conditions: CXCL12-AF647 25 ng/mL, read-out: IC50 CXCL-12 binding Jurkat
T1 construct: Jurkat cells expressing CXCR4; endogenous in cells; host or cells: Jurkat
Method in brief: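 Cells in HBSS, 20 mM HEPES, 0.2% BSA, pH 7.4, preincubated 15 min at room temperature with compound, then 25 ng/mL CXCL12-AF647 for 30 min. After washing and paraformaldehyde fixation, bound ligand read by flow cytometry; percent inhibition calculated from MFI relative to unlabeled and ligand-only controls.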

[2] = Mouse brain uptake assay (pharmacokinetics and brain penetration after IV administration); format: in vivo, Male CD1 Mice; conditions: male, 3 mg/kg IV, 3 time points; for Kp: CD1, brain and plasma, read-out: Kp (brain/plasma drug concentration ratio, AUC last(b)/AUC last(p)); for Kp / clearance / half-life: mouse, 0-1 h; for clearance / half-life: CD1, plasma; for clearance: read-out: Cl (Clearance) (converted); for half-life: read-out: t½ (half life) (converted); for AUC(0-t): CD1, time zero to 1 hr
Method: Example 15: Pharmacokinetics and Brain Penetration Experiment to Determine Brain and Plasma Concentrations of Compounds after IV Administration to Male CD1 Mice or Male SD Rats
The study design (9 animals) consisted of administrating the drug (IV: 3 mg/kg (5 mL/kg) via tail vein injection) and collecting samples at terminal bleeding for plasma and brain at 0.083, 0.5 and 1 h. The blood collection was performed as follows: the animal was restrained manually and approximately 150 μL blood/time point was collected into a dipotassium EDTA tube via retro orbital puncture under anesthesia with isoflurane. The blood sample was put on ice and centrifuged to obtain a plasma sample (2000 g, 5 min under 4° C.) within 15 minutes. The brain collection was performed as follows: a mid-line incision was made in the animal's scalp and the skin was retracted. Using small bone cutters and rongeurs, the skull overlying the brain was removed. The brain was removed using a spatula and the brain rinsed with cold saline. The brain was placed in screw-top tubes, and the tubes were stored at −70° C. until analysis. The IV dosing solution was prepared in 50 mM citrate buffer (pH 4.0) at 0.6 mg/mL.
Plasma Sample Preparation:
An aliquot of 30 μL sample was added to […] containing 50 ng/mL IS (Dexamethasone). The mixture was vortexed for 5 min and centrifuged at 14,000 rpm for 5 min. An aliquot of 5 μL supernatant was injected for LC-MS/MS analysis.
Brain Sample Preparation:
An aliquot of 30 μL brain homogenate (brain:PBS=1:3, w/v) sample was added to 150 μL IS in MeCN (Dexamethasone, 50 ng/mL). The mixture was vortexed for 5 min and centrifuged at 14,000 rpm for 5 min. An aliquot of 5 μL supernatant was injected for LC-MS/MS analysis.
The sample analysis was performed on LCMS/MS-003 (API4000, triple quadruple) under the following conditions: positive ion, ESI, MRM detection using dexamethasone as internal standard. HPLC conditions: mobile phase A: H2O (0.025% formic acid (FA) with 1 mM NH4OAc); mobile phase B: MeOH (0.025% FA with 1 mM NH4OAc) on Waters X-Bridge C18 (2.1×50 mm, 2.5 μm) column at 60° C.
A similar experiment was performed with 4 time points taken from 0-24 h.

CXCR4 (U87.CXCR4 cells) = target: T2, CXCR4 (U87.CXCR4 cells) (Homo sapiens, UniProt P61073); assay: Intracellular CXCL-12-induced calcium mobilization assay (FLIPR); format: cell-based; conditions: CXCL-12 25-50 ng/mL, read-out: IC50 CXCL-12 Ca2+ flux U87.CXCR4+
T2 construct: expressed in transfected cells; host or cells: U87 (U87.CXCR4)
Method in brief: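 U87.CXCR4 cells were loaded with 4 μM Fluo-2 AM for 45 min at 37 °C in HBSS/20 mM HEPES/0.2% BSA, pH 7.4. Calcium flux induced by CXCL-12 (25-50 ng/mL) was monitored kinetically by FLIPR fluorescence at 37 °C.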

in vitro = conditions: human, Caco-2, pH 7.4
Method in brief: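 Compound at 10 μM in HBSS pH 7.4 dosed A-to-B and B-to-A across Caco-2 monolayers, 90 min at 37 °C, duplicates. Monolayer integrity by TEER and lucifer yellow (5 μM, fluorescence 485/535 nm); compound quantified by LC-MS/MS.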

[3] = mouse brain, read-out: AUClast (b) (area under the brain drug concentration-time curve)
[4] = mouse plasma, read-out: AUClast (p) (area under the plasma drug concentration-time curve)

T2 sequence (P61073 whole entry): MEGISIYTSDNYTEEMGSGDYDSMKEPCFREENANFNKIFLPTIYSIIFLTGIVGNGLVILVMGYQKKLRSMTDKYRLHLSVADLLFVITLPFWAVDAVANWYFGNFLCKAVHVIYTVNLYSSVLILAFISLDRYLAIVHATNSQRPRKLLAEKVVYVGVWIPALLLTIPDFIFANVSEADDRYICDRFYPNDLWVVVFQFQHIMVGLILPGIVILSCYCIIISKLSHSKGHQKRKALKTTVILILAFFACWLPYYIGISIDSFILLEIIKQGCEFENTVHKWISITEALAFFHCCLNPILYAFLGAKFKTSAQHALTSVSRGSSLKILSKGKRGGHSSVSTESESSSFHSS
T1 sequence (P61073 whole entry): as above

Compound	pIC50 [1]	Kp [2]	clearance [2] [mL/min/kg]	half-life [2] [h]	AUC(0-t) [2, 3] [ng·h/mL]	AUC(0-t) [2, 4] [ng·h/mL]	pIC50 (CXCR4 (U87.CXCR4 cells))	Papp A→B at 90 min, 10 μM (in vitro) [×10⁻⁶ cm/s]	Papp B→A at 90 min, 10 μM (in vitro) [×10⁻⁶ cm/s]	efflux ratio at 90 min, 10 μM (in vitro)
Cc1cccnc1C1CCCN1Cc1nc2ccccc2n1C1CCN(C)CC1 (centres unmarked) [Compound I-33]	7.00 to 11.00	6.6	27.5	4.93	1660	252	6.00 to 7.00	10 to 30	10 to 30	0.1 to 10
Cc1cccnc1CN1CCCC1c1nc2cccc(N3CCN(C)CC3)c2[nH]1 (centres unmarked) [Compound I-45]	7.00 to 11.00	5.51	41.8	3.99	833	151	7.00 to 11.00	10 to 30	10 to 30	0.1 to 10
CN1CCN(c2c(CN3CCCC3c3ccccn3)nc3ccccn23)CC12CC2 (centres unmarked) [Compound I-58]	7.00 to 11.00	3.13	38.7	3.43	1230	393	7.00 to 11.00	10 to 30	10 to 30	0.1 to 10
CN1CCN(c2c(CN3CCCC3c3ncccc3Cl)nc3ccccn23)CC1 (centres unmarked) [Compound I-59]	7.00 to 11.00	1.05	58.3	3.71	240	227	7.00 to 11.00	0.1 to 10	10 to 30	0.1 to 10
Cc1cccnc1C1CCCN1Cc1nccn1CC1CCN(CC(F)(F)F)CC1 (centres unmarked) [Compound I-106]	6.00 to 7.00						≤ 6.00	10 to 30	> 30	0.1 to 10
Cc1cccnc1C1CCCN1Cc1nccn1CC1CCN(C2CC2)CC1 (centres unmarked) [Compound I-107]	7.00 to 11.00						7.00 to 11.00	0.1 to 10	10 to 30	0.1 to 10
Cc1cccnc1C1CCCN1Cc1nccn1CC1CCN(c2ccccn2)CC1 (centres unmarked) [Compound I-109]	6.00 to 7.00						≤ 6.00	> 30	> 30	0.1 to 10
Cc1cccnc1C1CCCN1Cc1nccn1CC1CCOCC1 (centres unmarked) [Compound I-110]	6.00 to 7.00						≤ 6.00	10 to 30	> 30	0.1 to 10
Cc1cccnc1C1CCCN1Cc1nccn1CCCCN1CCOCC1 (centres unmarked) [Compound I-111]	7.00 to 11.00						≤ 6.00	0.1 to 10	10 to 30	0.1 to 10
CN1CCC(Cn2ccnc2CN2CCCC2c2ccccn2)CC1 (centres unmarked) [Compound I-112]	7.00 to 11.00						6.00 to 7.00	0.1 to 10	10 to 30	> 30
Cc1cccnc1C1CCCN1Cc1ncccc1CC1CCN(C)CC1 (centres unmarked) [Compound I-117]	7.00 to 11.00						7.00 to 11.00	0.1 to 10	> 30	> 30
Cc1cccnc1C1CCCN1Cc1ncccc1CN1CCOCC1 (centres unmarked) [Compound I-118]	6.00 to 7.00						≤ 6.00	0.1 to 10	> 30	0.1 to 10
Cc1cccnc1C1CCCN1Cc1nc2ccccn2c1CN1CCOCC1 (centres unmarked) [Compound I-119]	7.00 to 11.00						6.00 to 7.00	0.1 to 10	> 30	10 to 30
Cc1cccnc1C1CCCN1Cc1nc2ccccc2n1CC1CCN(C)CC1 (centres unmarked) [Compound I-122]	7.00 to 11.00						7.00 to 11.00	0.1 to 10	> 30	0.1 to 10
CN1CCN(C(=O)c2c(CN3CCCC3c3ccccn3)nc3ccccn23)CC1 (centres unmarked) [Compound I-123]	6.00 to 7.00						≤ 6.00	0.1 to 10	10 to 30	0.1 to 10
